Details: for surface tension liquid-gas: Wilhelmg Plate Tensimeter; for mass density: Liquid, Vibrating tube method

CCOS(=O)(=O)[O-].CCn1cc[n+](C)c1 [1-ethyl-3-methylimidazolium ethyl sulfate]
Details	surface tension liquid-gas [mN/m]
292.91 K	47.16
298.26 K	46.9
303 K	46.59
308.61 K	46.35
313.41 K	46.12
322.71 K	45.5
332.09 K	45.08

Details	mass density [kg/m3]
293.15 K, 100 kPa	1241.3
293.15 K, 101.33 kPa	1241.37
293.15 K, 250 kPa	1241.4
293.15 K, 500 kPa	1241.4
293.15 K, 1000 kPa	1241.7
293.15 K, 1990 kPa	1242.1
293.15 K, 4990 kPa	1243.3
293.15 K, 10010 kPa	1245.3
293.15 K, 14990 kPa	1247.2
293.15 K, 20000 kPa	1249.2
293.15 K, 24990 kPa	1251.1
293.15 K, 30010 kPa	1253
293.15 K, 35000 kPa	1254.8
293.15 K, 40000 kPa	1256.6
293.15 K, 45000 kPa	1258.4
293.15 K, 50000 kPa	1260.2
293.15 K, 55000 kPa	1262
293.15 K, 60000 kPa	1263.7
294.15 K, 101.33 kPa	1240.67
295.15 K, 101.33 kPa	1239.97
296.15 K, 101.33 kPa	1239.28
297.15 K, 101.33 kPa	1238.58
298.15 K, 101.33 kPa	1237.88
299.15 K, 101.33 kPa	1237.19
300.15 K, 101.33 kPa	1236.5
301.15 K, 101.33 kPa	1235.81
302.15 K, 101.33 kPa	1235.12
303.15 K, 100 kPa	1234.3
303.15 K, 101.33 kPa	1234.43
303.15 K, 250 kPa	1234.4
303.15 K, 500 kPa	1234.5
303.15 K, 1000 kPa	1234.7
303.15 K, 2010 kPa	1235.1
303.15 K, 4990 kPa	1236.3
303.15 K, 10010 kPa	1238.4
303.15 K, 14990 kPa	1240.4
303.15 K, 20000 kPa	1242.4
303.15 K, 24990 kPa	1244.3
303.15 K, 30010 kPa	1246.3
303.15 K, 35010 kPa	1248.1
303.15 K, 40000 kPa	1250
303.15 K, 45000 kPa	1251.8
303.15 K, 50000 kPa	1253.6
303.15 K, 55000 kPa	1255.4
303.15 K, 60000 kPa	1257.1
304.15 K, 101.33 kPa	1233.74
305.15 K, 101.33 kPa	1233.05
306.15 K, 101.33 kPa	1232.37
307.15 K, 101.33 kPa	1231.69
308.15 K, 101.33 kPa	1231
309.15 K, 101.33 kPa	1230.32
310.15 K, 101.33 kPa	1229.64
311.15 K, 101.33 kPa	1228.96
312.15 K, 101.33 kPa	1228.28
313.15 K, 100 kPa	1227.5
313.15 K, 101.33 kPa	1227.61
313.15 K, 250 kPa	1227.5
313.15 K, 500 kPa	1227.6
313.15 K, 2000 kPa	1228.3
313.15 K, 4990 kPa	1229.5
313.15 K, 10010 kPa	1231.7
313.15 K, 14990 kPa	1233.7
313.15 K, 20000 kPa	1235.7
313.15 K, 25000 kPa	1237.6
313.15 K, 30010 kPa	1239.6
313.15 K, 35000 kPa	1241.5
313.15 K, 40000 kPa	1243.4
313.15 K, 44990 kPa	1245.3
313.15 K, 50000 kPa	1247.1
313.15 K, 54990 kPa	1248.9
313.15 K, 60000 kPa	1250.7
314.15 K, 101.33 kPa	1226.93
315.15 K, 101.33 kPa	1226.25
316.15 K, 101.33 kPa	1225.58
317.15 K, 101.33 kPa	1224.9
318.15 K, 101.33 kPa	1224.23
319.15 K, 101.33 kPa	1223.56
320.15 K, 101.33 kPa	1222.89
321.15 K, 101.33 kPa	1222.21
322.15 K, 101.33 kPa	1221.54
323.15 K, 100 kPa	1220.7
323.15 K, 101.33 kPa	1220.88
323.15 K, 250 kPa	1220.8
323.15 K, 500 kPa	1220.9
323.15 K, 1010 kPa	1221.1
323.15 K, 2010 kPa	1221.6
323.15 K, 4990 kPa	1222.9
323.15 K, 10010 kPa	1225
323.15 K, 14990 kPa	1227.1
323.15 K, 20010 kPa	1229.1
323.15 K, 25000 kPa	1231.1
323.15 K, 30010 kPa	1233.1
323.15 K, 35000 kPa	1235.1
323.15 K, 40000 kPa	1237
323.15 K, 45000 kPa	1238.9
323.15 K, 50000 kPa	1240.8
323.15 K, 55000 kPa	1242.6
323.15 K, 60000 kPa	1244.5
324.15 K, 101.33 kPa	1220.21
325.15 K, 101.33 kPa	1219.54
326.15 K, 101.33 kPa	1218.87
327.15 K, 101.33 kPa	1218.21
328.15 K, 101.33 kPa	1217.54
329.15 K, 101.33 kPa	1216.88
330.15 K, 101.33 kPa	1216.21
331.15 K, 101.33 kPa	1215.55
332.15 K, 101.33 kPa	1214.89
333.15 K, 100 kPa	1214.1
333.15 K, 101.33 kPa	1214.23
333.15 K, 250 kPa	1214.1
333.15 K, 500 kPa	1214.2
333.15 K, 1000 kPa	1214.4
333.15 K, 2010 kPa	1214.9
333.15 K, 5000 kPa	1216.2
333.15 K, 10010 kPa	1218.4
333.15 K, 14990 kPa	1220.5
333.15 K, 20000 kPa	1222.7
333.15 K, 24990 kPa	1224.7
333.15 K, 30000 kPa	1226.7
333.15 K, 34990 kPa	1228.7
333.15 K, 40000 kPa	1230.7
333.15 K, 45020 kPa	1232.6
333.15 K, 50000 kPa	1234.5
333.15 K, 54990 kPa	1236.4
333.15 K, 60000 kPa	1238.3
334.15 K, 101.33 kPa	1213.56
335.15 K, 101.33 kPa	1212.9
336.15 K, 101.33 kPa	1212.24
337.15 K, 101.33 kPa	1211.58
338.15 K, 101.33 kPa	1210.92
339.15 K, 101.33 kPa	1210.26
340.15 K, 101.33 kPa	1209.6
341.15 K, 101.33 kPa	1208.95
